Test results published in patent publication US10596150B2, “Antifungal agents” (F2G LIMITED, priority 2014, dated 2020).

What was measured:
[1] = system: A. fumigatus strain A1163; experiment: Murine survival model of Aspergillus fumigatus infection (survival, kidney burden, serum galactomannan); assay type: in vivo, male CD-1 mice; details: for serum galactomannan indices: FIG. 6; for End of study tissue burden (kidney): surviving animals; for survival at end of study: therapy from 24 h post infection for 8 days
Experimental: Murine survival models are frequently used to assess the efficacy of antifungal drugs against Aspergillus. The models used in the development of Example 1 were carried out at Euprotec Ltd (Manchester) a contract research organisation (CRO) with extensive experience in the evaluation of antifungal drugs. The typical model involves the use of groups of 6-10 male CD-1 mice per treatment group. Mice are immunosuppressed with 200 mg/kg cyclophosphamide injected intraperitoneal 3 days prior to infection. A. fumigatus strain A1163 is cultured on Sabourauds agar for 4-6 days at 35° C. Spores are harvested in phosphate buffered saline (PBS)/Tween, the suspension diluted and the number of spores enumerated. Mice are then infected with an intravenous injection of A. fumigatus spores given through the lateral tail vein. The typical inoculum is 6-8×10^4 cfu/mouse and is sufficient to kill all untreated animals by Day 4-6. The animals die of IA and Aspergillus organisms can be detected in many body tissues. Treatment is typically commenced soon after infection but delays of up to 24 h following infection produce a more challenging model. Treatment is continued for 7-9 days. Treatment may be up to 3 times daily using an oral dosing. Following cessation of treatment, animals are observed for 1-2 days, and then sacrificed. Relevant controls treated with oral drug-free vehicle are always included; ideally there should be no survivors in this group. A positive control consisting of an antifungal drug such as Reference Example 10 was used. This compound consistently produces 100% survival at doses of 10 mg/kg b.i.d. dosed by the oral route. Most models are run as temporary neutropenic models where only a single dose of cyclophosphamide is administered.
The fungal burden in the kidney can be determined on animals surviving to the end of the study and this can help provide efficacy discrimination between groups where all animals survive. Tissue burdens are carried out by removing the kidneys from animals when they are culled at the end of the study. These are homogenised in saline and plated onto Sabourauds agar and incubated at 35° C. for 72 h. Aspergillus colonies are counted and the amount of aspergillus per gram of kidney calculated. The results are expressed as colony forming units per gramme (cfu/g). […] However, data from studies where tissue burden has been carried out on untreated animals at day 4 or 5 has shown that tissue burdens are typically in excess of 20,000 cfu/g and may exceed 100,000 cfu/g in some studies.
In some of the survival studies described below serum samples were collected from surviving mice at the end of the study or on mice that succumbed to infection during the study to examine the effect of Example 1 on galactomannan levels and to see if there was a relationship between galactomannan levels and survival.
The galactomannan assays were carried out on serum samples that had been stored frozen at −80° C. Samples were thawed and assayed using a Platelia Aspergillus Ag enzyme-linked immunosorbent assay (ELISA) kit (Biorad). The assay was modified slightly to take into account the small sample volumes available from mice. If assay results were high a repeat test was carried out on a sample diluted in normal mouse serum. The amount of galactomannan in a sample is presented as a galactomannan index. The mean galactomannan index for each group was calculated and is presented graphically against each treatment regimen.
The survival study carried assessed the dose response of Example 1. Example 1 was dosed orally to A. fumigatus infected mice at 2 dose levels 10 mg/kg b.i.d. and 3 mg/kg b.i.d. Therapy was initiated at 24 h post infection and therapy continued for 8 days. At the end of the study kidney burdens were measured on surviving animals. In addition serum samples were taken at the end of the study from all surviving animals and from each animal that died during the course of the study. […]

S. dehoogii = experiment: Analogous MIC experiments; assay type: cell-based
Experimental: (§1) Between 1 and 5 mgs of the compound were accurately weighed out into a sterile Eppendorf tube. The compound was dissolved in DMSO to give a solution containing 5 mg/mL. Tubes were stored at −20° C. until required.
(§2) On the day of testing thawed solutions were vortex mixed to ensure homogeneity. 30 μL of solution was removed and added to 570 μL of sterile water in a separate sterile Eppendorf. The thoroughly mixed solution was used to prepare a series of doubling dilutions in water, in a deep well plate. Thirteen replicate plates were prepared using a Minitrak by aspirating 20 μL from each well into eleven clear polystyrene 96 well plates.
(§3) Spores of Aspergillus and Scedosporium were harvested from cultures grown on Sabarauds agar for 5 days, and resuspended in PBS/Tween 80 to approx 1×10^7 cfu/mL. Each organism suspension was diluted in RPMI medium, containing 2% glucose and 0.135 M MOPS buffer (pH 7.0) to 0.5-2×10^4 cfu/mL. 80 μL of an organism suspension was added to each well of the plate containing drug dilutions.
(§4) This produced MIC plates with a drug range 50-0.05 mg/L and organism inocula of 1-2×10^4 cfu/mL. All plates were incubated for 24-48 h at 35° C. Growth was assessed by monitoring the optical density at 485 nm for each well. The MIC of a compound is the lowest drug concentration that inhibits growth of an organism by >80% compared with a drug free control.

S. aurantiacum = experiment: Analogous MIC experiments; assay type: cell-based
Experimental: as §1, §2, §3, §4

S. boydii = experiment: Analogous MIC experiments; assay type: cell-based
Experimental: as §1, §2, §3, §4

L. prolificans FMR 3569 = experiment: Lomentospora prolificans FMR 3569 disseminated infection model (survival, tissue burden); assay type: in vivo, Male OF-1 mice; details: VRC 25 mg/kg p.o. QD; Example 1 20 mg/k p.o. BID; from day 1 after challenge for 9 days
Experimental: L. prolificans (also known as Scedosporium prolificans or S. prolificans) was grown on Potato Dextrose Agar (PDA) for 5 days at 35° C. On the day of infection, cultures were flooded with sterile saline and filtered through sterile gauze to remove clumps of conidia and hyphae. The resulting suspensions were adjusted by haemocytometer count and by serial plating to confirm viability.
Male OF-1 mice with a mean weight of 30 g were used in the experiment. Mice were housed in standard boxes with food and water ad libitum.
Mice were rendered neutropenic two days prior to infection by an intraperitoneal (i.p.) injection of 200 mg/kg of cyclophosphamide, and once every 5 days thereafter (Clemons et al, 2005).
Mice were challenged with 5×10^4 CFU/animal of L. prolificans FMR 3569, in a volume of 0.2 ml of sterile saline into the lateral tail vein.
Treatments consisted of (a) voriconazole (VRC) (Vfend; Pfizer S. A., Madrid, Spain) at 25 mg/kg p.o, by gavage QD; (b) Example 1 at 20 mg/k, p.o, by gavage BID; and (c) no treatment. From 3 days before infection, mice that received VRC were given grapefruit juice instead of water (Sugar & Liu, 2001). All treatments began 1 day after challenge, and the therapy lasted for 9 days. Controls received no treatment.
For survival studies groups of 10 mice were randomly established for each therapy. Mortality was recorded daily until the end of the experiment. […]

**Q.** `Cc1cc(-c2ccccc2)c(C(=O)C(=O)Nc2ccc(N3CCN(c4ncc(F)cn4)CC3)cc2)n1C` [Example 1, 2-(1,5-dimethyl-3-phenyl-1H-pyrrol-2-yl)-N-(4-(4-(5-fluoropyrimidin-2-yl)piperazin-1-yl)phenyl)-2-oxoacetamide] was tested. Which serum galactomannan indices ([1]; 3 mg/kg b.i.d. oral, similar magnitude to untreated animals) did it give?
**A.** Its serum galactomannan indices is “correspondingly high”.

**Q.** And the “End of study tissue burden (kidney)” value ([1]; 3 mg/kg b.i.d. oral)?
**A.** The value was 3021 cfu/gm.

**Q.** And the “survival at end of study” value ([1]; 3 mg/kg b.i.d. oral)?
**A.** The value was 10%.

**Q.** What about the serum galactomannan indices ([1]; 10 mg/kg b.i.d. oral) of the same molecule?
**A.** The serum galactomannan indices was “very low”.

**Q.** And the “End of study tissue burden (kidney)” value ([1]; 10 mg/kg b.i.d. oral)?
**A.** Its value is 1114 cfu/gm.

**Q.** What about the “survival at end of study” value ([1]; 10 mg/kg b.i.d. oral) of the same molecule?
**A.** Its value is 100%.

**Q.** What about the “antifungal activity against S. dehoogii” value (S. dehoogii) of the same molecule?
**A.** The value was “good antifungal activity”.

**Q.** What about the “antifungal activity against S. aurantiacum” value (S. aurantiacum) of the same molecule?
**A.** The value was “good antifungal activity”.

**Q.** What about the “antifungal activity against S. boydii” value (S. boydii) of the same molecule?
**A.** The value was “good antifungal activity”.

**Q.** And the “survival rates compared with the control (FIG. 7)” value (L. prolificans FMR 3569)?
**A.** The value was “improved survival rates”.
